These results are taken from US9227971B2, “Pyrazolo[1,5-a]pyrimidine compounds as mTOR inhibitors” (Merck Sharp & Dohme Corp., priority 2010, dated 2016).

pIC50: −log10 of the molar value. Read-outs that look alike come from different tables or passages of the source.

Experiment [1] deals with phosphorylated AKT Ser473 (pAKT S473), mTORC2 activity, PC3 cells. Description: mTOR target engagement assay, immunofluorescent cell-based, pAKT S473 readout (mTORC2 activity). The method, boiled down: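 After blocking, cells were stained overnight at 4 °C with anti-pAKT S473 antibody, then a fluorescent secondary; inhibition was read as reduced fluorescence intensity.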

Experiment [2] concerns phosphorylated 4E-BP1 Thr37/46 (p4E-BP1 Thr37/46), mTORC1 activity, PC3 cells. The experiment can be described thus: mTOR target engagement assay, immunofluorescent cell-based, p4E-BP1 Thr37/46 readout (mTORC1 activity). The conditions noted are these: read-out: p4E-BP1 Thr37/46 IC50. The essentials:
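Seed PC3 cells overnight; treat with compound dilutions for ninety minutes at 37° C; fix with glyoxal and block; stain with anti-p4E-BP1 Thr37/46 overnight at 4° C, then fluorescent secondary; read fluorescence and fit IC50 against DMSO-only controls.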

The mark [3] stands for this setting: Homo sapiens, PC-3, Table 6-1, PC3 cells.
Where [4] appears, read: Homo sapiens, PC-3, Table 3-1, PC3 cells.
The mark [5] stands for this setting: Homo sapiens, PC-3, PC3 cells, compound treatment ninety minutes at 37° C.
Where [6] appears, read: Homo sapiens, PC-3, Table 7-8, PC3 cells.

As for `CC(=O)c1c([C@@H]2C[C@H]3CC[C@@H](C2)N3C(=O)c2nnc(C)[nH]2)nc2c(-c3ccc(-c4ncc[nH]4)nc3)cnn2c1N` [Compound 6.21, 1-(3-(6-(1H-imidazol-2-yl)pyridin-3-yl)-7-amino-5-((1R,3s,5S)-8-(5-methyl-4H-1,2,4-triazole-3-carbonyl)-8-azabicyclo[3.2.1]octan-3-yl)pyrazolo[1,5-a]pyrimidin-6-yl)ethanone], the pIC50 in experiment [1] (setting [3]) and in experiment [2] (setting [3]) was 7.00 to 9.00 each time.

`CS(=O)(=O)c1c([C@@H]2C[C@H]3CC[C@@H](C2)N3C(=O)c2nnc[nH]2)nc2c(-c3ccc(-c4ccccn4)nc3)cnn2c1N` [Compound 3.102, ((1R,3s,5S)-3-(3-(2,2′-bipyridin-5-yl)-7-amino-6-(methylsulfonyl)pyrazolo[1,5-a]pyrimidin-5-yl)-8-azabicyclo[3.2.1]octan-8-yl)(4H-1,2,4-triazol-3-yl)methanone]: the pIC50 in experiment [1] (setting [4]) and in experiment [2] (setting [4]) was 7.00 to 9.00 each time.

For `COCc1cnc(-c2ccc(-c3cnn4c(N)c(C(C)=O)c([C@@H]5C[C@H]6CC[C@@H](C5)N6C(=O)c5nnc[nH]5)nc34)cn2)s1` [Compound 1.1.52, 1-(5-((1R,3s,5S)-8-(4H-1,2,4-triazole-3-carbonyl)-8-azabicyclo[3.2.1]octan-3-yl)-7-amino-3-(6-(5-(methoxymethyl)thiazol-2-yl)pyridin-3-yl)pyrazolo[1,5-a]pyrimidin-6-yl)ethanone], the pIC50 in experiment [1] (setting [5]) and in experiment [2] (setting [5]) was 6.00 to 7.00 throughout.

On to `N#Cc1c([C@@H]2C[C@H]3CC[C@@H](C2)N3C(=O)c2nc[nH]n2)nc2c(-c3ccc(-c4ccccc4)nc3)cnn2c1N` [Compound 5.2, 5-((1R,3s,5S)-8-(1H-1,2,4-triazole-3-carbonyl)-8-azabicyclo[3.2.1]octan-3-yl)-7-amino-3-(6-phenylpyridin-3-yl)pyrazolo[1,5-a]pyrimidine-6-carbonitrile], for which the pIC50 in experiment [1] (setting [5]) and in experiment [2] (setting [5]) was 7.00 to 9.00 throughout.

On to `Nc1c(C2CC2)c([C@H]2CC3CC[C@H](C2)N3C(=O)c2nnc[nH]2)nc2c(-c3cnc4c(c3)CCCC4O)cnn12` (stereo partly drawn) [Compound 7.54, ((1R,3s,5S)-3-(7-amino-6-cyclopropyl-3-(8-hydroxy-5,6,7,8-tetrahydroquinolin-3-yl)pyrazolo[1,5-a]pyrimidin-5-yl)-8-azabicyclo[3.2.1]octan-8-yl)(4H-1,2,4-triazol-3-yl)methanone], for which the pIC50 in experiment [1] (Homo sapiens, PC-3, PC3 cells) is 7.00 to 9.00; in experiment [2] (Homo sapiens, PC-3, PC3 cells), 7.00 to 9.00.

For `CC(=O)c1c(C2CC3COCC(C2)N3C(=O)c2nc[nH]n2)nc2c(-c3ccc(-c4ccccc4)nc3)cnn2c1N` (stereo not drawn) [Compound 8.27, 1-(5-(9-(1H-1,2,4-triazole-3-carbonyl)-3-oxa-9-azabicyclo[3.3.1]nonan-7-yl)-7-amino-3-(6-phenylpyridin-3-yl)pyrazolo[1,5-a]pyrimidin-6-yl)ethanone], the pIC50 was 7.00 to 9.00 in experiment [1] (Homo sapiens, PC-3, PC3 cells) and 6.00 to 7.00 in experiment [2] (Homo sapiens, PC-3, PC3 cells).

As to `CS(=O)(=O)c1c([C@@H]2C[C@H]3CC[C@@H](C2)N3C(=O)CO)nc2c(-c3ccc(-c4ncc[nH]4)nc3)cnn2c1N` [Compound 6.6, 1-((1R,3s,5S)-3-(3-(6-(1H-imidazol-2-yl)pyridin-3-yl)-7-amino-6-(methylsulfonyl)pyrazolo [1,5-a]pyrimidin-5-yl)-8-azabicyclo[3.2.1]octan-8-yl)-2-hydroxyethanone], the pIC50 in experiment [1] (setting [3]) and in experiment [2] (setting [3]) was 7.00 to 9.00 each time.

As for `CC(=O)c1c([C@@H]2C[C@H]3CC[C@@H](C2)N3C(=O)C(C)(CO)CO)nc2c(-c3ccc(-c4ccccc4)nc3)cnn2c1N` [Compound 1.1.1, 1-((1R,3s,5S)-3-(6-acetyl-7-amino-3-(6-phenylpyridin-3-yl)pyrazolo[1,5-a]pyrimidin-5-yl)-8-azabicyclo[3.2.1]octan-8-yl)-3-hydroxy-2-(hydroxymethyl)-2-methylpropan-1-one], the pIC50 in experiment [1] (setting [5]) and in experiment [2] (setting [5]) was 6.00 to 7.00 each time.

As for `COc1cc(F)c(-c2ccc(-c3cnn4c(N)c(C(C)=O)c([C@@H]5C[C@H]6CC[C@@H](C5)N6C(=O)c5nnc[nH]5)nc34)cn2)cc1F` [Compound 1.1.72, 1-(5-((1R,3s,5S)-8-(4H-1,2,4-triazole-3-carbonyl)-8-azabicyclo[3.2.1]octan-3-yl)-7-amino-3-(6-(2,5-difluoro-4-methoxyphenyl)pyridin-3-yl)pyrazolo[1,5-a]pyrimidin-6-yl)ethanone], the pIC50 in experiment [1] (setting [5]) and in experiment [2] (setting [5]) was 7.00 to 9.00 throughout.

Regarding `CC1(O)CCCc2cc(-c3cnn4c(N)c(C5CC5)c([C@H]5CC6CC[C@H](C5)N6C(=O)c5nnc[nH]5)nc34)cnc21` (stereo partly drawn) [Compound 7.55, ((1R,3s,5S)-3-(7-amino-6-cyclopropyl-3-(8-hydroxy-8-methyl-5,6,7,8-tetrahydroquinolin-3-yl)pyrazolo[1,5-a]pyrimidin-5-yl)-8-azabicyclo[3.2.1]octan-8-yl)(4H-1,2,4-triazol-3-yl)methanone], the pIC50 in experiment [1] (Homo sapiens, PC-3, PC3 cells) is 6.00 to 7.00; in experiment [2] (Homo sapiens, PC-3, PC3 cells), 6.00 to 7.00.

For the compound `Nc1cc([C@]2(O)C[C@H]3CC[C@@H](C2)N3C(=O)c2nnc[nH]2)nc2c(-c3ccc(-c4ccccc4)nc3)cnn12` [Compound 8.23, ((1R,3r,5S)-3-(7-amino-3-(6-phenylpyridin-3-yl)pyrazolo[1,5-a]pyrimidin-5-yl)-3-hydroxy-8-azabicyclo[3.2.1]octan-8-yl)(4H-1,2,4-triazol-3-yl)methanone], the pIC50 in experiment [1] (Homo sapiens, PC-3, PC3 cells) was 5.00 to 6.00; in experiment [2] (Homo sapiens, PC-3, PC3 cells), 5.00 to 6.00.

As for `CC(O)c1ccc(-c2cnn3c(N)c(S(C)(=O)=O)c([C@@H]4C[C@H]5CC[C@@H](C4)N5C(=O)c4nnc[nH]4)nc23)cc1` (stereo partly drawn) [Compound 7.51, ((1R,3s,5S)-3-(7-amino-3-(4-(1-hydroxyethyl)phenyl)-6-(methylsulfonyl)pyrazolo [1,5-a]pyrimidin-5-yl)-8-azabicyclo[3.2.1]octan-8-yl)(4H-1,2,4-triazol-3-yl)methanone], the pIC50 in experiment [1] (setting [6]) and in experiment [2] (setting [6]) was 7.00 to 9.00 throughout.

For the compound `CC(=O)c1c([C@@H]2C[C@H]3CC[C@@H](C2)N3C(=O)c2nnc[nH]2)nc2c(-c3ccc([C@@H](O)C(F)(F)F)nc3)cnn2c1N` [Compound 7.73, 1-(5-((1R,3s,5S)-8-(4H-1,2,4-triazole-3-carbonyl)-8-azabicyclo[3.2.1]octan-3-yl)-7-amino-3-(6-((R)-2,2,2-trifluoro-1-hydroxyethyl)pyridin-3-yl)pyrazolo[1,5-a]pyrimidin-6-yl)ethanone], the pIC50 in experiment [1] (Homo sapiens, PC-3, PC3 cells) is 6.00 to 7.00; in experiment [2] (Homo sapiens, PC-3, PC3 cells), 6.00 to 7.00.

Take `CC(=O)c1c([C@@H]2C[C@H]3CC[C@@H](C2)N3C(=O)c2nnc[nH]2)nc2c(-c3cnc(C(C)O)s3)cnn2c1N` (stereo partly drawn) [Compound 7.36, 1-(5-((1R,3s,5S)-8-(4H-1,2,4-triazole-3-carbonyl)-8-azabicyclo[3.2.1]octan-3-yl)-7-amino-3-(2-(1-hydroxyethyl)thiazol-5-yl)pyrazolo[1,5-a]pyrimidin-6-yl)ethanone]: the pIC50 in experiment [1] (setting [5]) and in experiment [2] (setting [5]) was 5.00 to 6.00 in each case.

As to `CC(=O)c1c([C@@H]2C[C@H]3CC[C@@H](C2)N3C(=O)c2nnc[nH]2)nc2c(-c3ccc(NC4CC4)nc3)cnn2c1N` [Compound 8.47, 1-(5-((1R,3s,5S)-8-(4H-1,2,4-triazole-3-carbonyl)-8-azabicyclo[3.2.1]octan-3-yl)-7-amino-3-(6-(cyclopropylamino)pyridin-3-yl)pyrazolo[1,5-a]pyrimidin-6-yl)ethanone], the pIC50 in experiment [1] (PC3 cells) and in experiment [2] (PC3 cells) was 7.00 to 9.00 throughout.

For `CC(=O)c1c([C@@H]2C[C@H]3CC[C@@H](C2)N3C(=O)c2nnc[nH]2)nc2c(-c3ccc(C(C)O)nc3)cnn2c1N` (stereo partly drawn) [Compound 7.4, 1-(5-((1R,3s,5S)-8-(4H-1,2,4-triazole-3-carbonyl)-8-azabicyclo[3.2.1]octan-3-yl)-7-amino-3-(6-(1-hydroxyethyl)pyridin-3-yl)pyrazolo[1,5-a]pyrimidin-6-yl)ethanone], the pIC50 in experiment [1] (setting [5]) and in experiment [2] (setting [5]) was 7.00 to 9.00 each time.

As to `CC(=O)c1c([C@@H]2C[C@H]3CC[C@@H](C2)N3C(=O)[C@@H](C)O)nc2c(-c3ccc(-c4ccc(F)cc4F)nc3)cnn2c1N` [Compound 1.1.168, (R)-1-((1R,3S,5S)-3-(6-acetyl-7-amino-3-(6-(2,4-difluorophenyl)pyridin-3-yl)pyrazolo[1,5-a]pyrimidin-5-yl)-8-azabicyclo[3.2.1]octan-8-yl)-2-hydroxypropan-1-one], the pIC50 in experiment [1] (setting [5]) and in experiment [2] (setting [5]) was 6.00 to 7.00 each time.

Turning to `CS(=O)(=O)c1c([C@@H]2C[C@H]3CC[C@@H](C2)N3C(=O)c2nnc[nH]2)nc2c(-c3ccc(-c4cccc(F)c4F)nc3)cnn2c1N` [Compound 3.47, ((1R,3s,5S)-3-(7-amino-3-(6-(2,3-difluorophenyl)pyridin-3-yl)-6-(methylsulfonyl)pyazolo[1,5-a]pyrimidin-5-yl)-8-azabicyclo[3.2.1]octan-8-yl)(4H-1,2,4-triazol-3-yl)methanone], the pIC50 in experiment [1] (setting [4]) and in experiment [2] (setting [4]) was 7.00 to 9.00 each time.
